{"source": "the supplement of paper PMC10307832", "assay_in_all_cases": "relative viability (nuclei count vs DMSO), 5 days (fraction); higher = more cells survive", "key": {"A-427": {"tested_on": "A-427", "how_it_was_run": "(§1)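 Lung cancer cell lines in 1536-well plates were dosed by pin tool the day after seeding, either with one drug alone or with a fixed anchor-drug dose plus five library-drug doses (not always all listed) in √10 steps. After 5 days, cells were fixed and their nuclei stained in one step (final 0.05% Triton X-100, 1% formaldehyde, 1 ug/ml Hoechst), then counted on 4× images. Relative viability is the nuclei count in treated wells divided by that in vehicle wells. Values are medians of duplicate plates.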"}, "BEN": {"tested_on": "BEN", "how_it_was_run": "as §1"}, "HARA": {"tested_on": "HARA", "how_it_was_run": "as §1"}, "LCLC-97TM1": {"tested_on": "LCLC-97TM1", "how_it_was_run": "as §1"}, "LOU-NH91": {"tested_on": "LOU-NH91", "how_it_was_run": "as §1"}, "LU99A": {"tested_on": "LU99A", "how_it_was_run": "as §1"}, "LXF-289": {"tested_on": "LXF-289", "how_it_was_run": "as §1"}, "NCI-H1395": {"tested_on": "NCI-H1395", "how_it_was_run": "as §1"}, "NCI-H1666": {"tested_on": "NCI-H1666", "how_it_was_run": "as §1"}, "NCI-H1755": {"tested_on": "NCI-H1755", "how_it_was_run": "as §1"}, "NCI-H1793": {"tested_on": "NCI-H1793", "how_it_was_run": "as §1"}, "NCI-H1915": {"tested_on": "NCI-H1915", "how_it_was_run": "as §1"}}, "data": [{"smiles": "O=C(O)CCCCC(CCSCc1ccccc1)SCc1ccccc1", "note": "(configuration not stated) [CPI-613] + CS(=O)(=O)N1CCN(Cc2cc3nc(-c4cccc5[nH]ncc45)nc(N4CCOCC4)c3s2)CC1 [Pictilisib] (partner 1 µM)", "values": [{"measurement": "relative viability", "setting": "A-427; first compound 5 µM", "value": 0.742}, {"measurement": "relative viability", "setting": "A-427; first compound 15.81 µM", "value": 0.696}, {"measurement": "relative viability", "setting": "A-427; first compound 50 µM", "value": 0.66}, {"measurement": "relative viability", "setting": "A-427; first compound 158.11 µM", "value": 0.613}, {"measurement": "relative viability", "setting": "A-427; first compound 500 µM", "value": 0.737}, {"measurement": "relative viability", "setting": "BEN; first compound 5 µM", "value": 0.527}, {"measurement": "relative viability", "setting": "BEN; first compound 15.81 µM", "value": 0.423}, {"measurement": "relative viability", "setting": "BEN; first compound 50 µM", "value": 0.503}, {"measurement": "relative viability", "setting": "BEN; first compound 158.11 µM", "value": 0.452}, {"measurement": "relative viability", "setting": "BEN; first compound 500 µM", "value": 0.495}, {"measurement": "relative viability", "setting": "HARA; first compound 5 µM", "value": 0.474}, {"measurement": "relative viability", "setting": "HARA; first compound 15.81 µM", "value": 0.409}, {"measurement": "relative viability", "setting": "HARA; first compound 50 µM", "value": 0.281}, {"measurement": "relative viability", "setting": "HARA; first compound 158.11 µM", "value": 0.242}, {"measurement": "relative viability", "setting": "HARA; first compound 500 µM", "value": 0.084}, {"measurement": "relative viability", "setting": "LCLC-97TM1; first compound 5 µM", "value": 0.191}, {"measurement": "relative viability", "setting": "LCLC-97TM1; first compound 15.81 µM", "value": 0.164}, {"measurement": "relative viability", "setting": "LCLC-97TM1; first compound 50 µM", "value": 0.174}, {"measurement": "relative viability", "setting": "LCLC-97TM1; first compound 158.11 µM", "value": 0.192}, {"measurement": "relative viability", "setting": "LCLC-97TM1; first compound 500 µM", "value": 0.0531}, {"measurement": "relative viability", "setting": "LOU-NH91; first compound 5 µM", "value": 0.499}, {"measurement": "relative viability", "setting": "LOU-NH91; first compound 15.81 µM", "value": 0.519}, {"measurement": "relative viability", "setting": "LOU-NH91; first compound 50 µM", "value": 0.541}, {"measurement": "relative viability", "setting": "LOU-NH91; first compound 158.11 µM", "value": 0.532}, {"measurement": "relative viability", "setting": "LOU-NH91; first compound 500 µM", "value": 0.511}, {"measurement": "relative viability", "setting": "LU99A; first compound 5 µM", "value": 0.289}, {"measurement": "relative viability", "setting": "LU99A; first compound 15.81 µM", "value": 0.322}, {"measurement": "relative viability", "setting": "LU99A; first compound 50 µM", "value": 0.339}, {"measurement": "relative viability", "setting": "LU99A; first compound 158.11 µM", "value": 0.256}, {"measurement": "relative viability", "setting": "LU99A; first compound 500 µM", "value": 0.0798}, {"measurement": "relative viability", "setting": "LXF-289; first compound 5 µM", "value": 0.716}, {"measurement": "relative viability", "setting": "LXF-289; first compound 15.81 µM", "value": 0.752}, {"measurement": "relative viability", "setting": "LXF-289; first compound 50 µM", "value": 0.728}, {"measurement": "relative viability", "setting": "LXF-289; first compound 158.11 µM", "value": 0.479}, {"measurement": "relative viability", "setting": "LXF-289; first compound 500 µM", "value": 0.0147}, {"measurement": "relative viability", "setting": "NCI-H1395; first compound 5 µM", "value": 0.623}, {"measurement": "relative viability", "setting": "NCI-H1395; first compound 15.81 µM", "value": 0.782}, {"measurement": "relative viability", "setting": "NCI-H1395; first compound 50 µM", "value": 0.619}, {"measurement": "relative viability", "setting": "NCI-H1395; first compound 158.11 µM", "value": 0.645}, {"measurement": "relative viability", "setting": "NCI-H1395; first compound 500 µM", "value": 0.51}, {"measurement": "relative viability", "setting": "NCI-H1666; first compound 5 µM", "value": 0.512}, {"measurement": "relative viability", "setting": "NCI-H1666; first compound 15.81 µM", "value": 0.351}, {"measurement": "relative viability", "setting": "NCI-H1666; first compound 50 µM", "value": 0.404}, {"measurement": "relative viability", "setting": "NCI-H1666; first compound 158.11 µM", "value": 0.15}, {"measurement": "relative viability", "setting": "NCI-H1666; first compound 500 µM", "value": 0.0576}, {"measurement": "relative viability", "setting": "NCI-H1755; first compound 5 µM", "value": 0.39}, {"measurement": "relative viability", "setting": "NCI-H1755; first compound 15.81 µM", "value": 0.4}, {"measurement": "relative viability", "setting": "NCI-H1755; first compound 50 µM", "value": 0.415}, {"measurement": "relative viability", "setting": "NCI-H1755; first compound 158.11 µM", "value": 0.359}, {"measurement": "relative viability", "setting": "NCI-H1755; first compound 500 µM", "value": 0.116}, {"measurement": "relative viability", "setting": "NCI-H1793; first compound 5 µM", "value": 0.248}, {"measurement": "relative viability", "setting": "NCI-H1793; first compound 50 µM", "value": 0.266}, {"measurement": "relative viability", "setting": "NCI-H1793; first compound 158.11 µM", "value": 0.205}, {"measurement": "relative viability", "setting": "NCI-H1793; first compound 500 µM", "value": 0.0326}, {"measurement": "relative viability", "setting": "NCI-H1915; first compound 5 µM", "value": 0.988}, {"measurement": "relative viability", "setting": "NCI-H1915; first compound 15.81 µM", "value": 0.719}, {"measurement": "relative viability", "setting": "NCI-H1915; first compound 50 µM", "value": 0.908}]}]}
